Reference: patent publication US20160250354A1, “METHODS AND COMPOSITIONS FOR DELIVERY OF ACTIVE AGENTS” (TEKMIRA PHARMACEUTICALS CORPORATION, priority 2010, published 2016)

Tested on: Factor VII
Experiment: in vivo rodent Factor VII silencing model (serum/plasma FVII after i.v. FVII siRNA lipid formulation)
Set-up: species or system C57BL/6 mice
Protocol: C57BL/6 mice (Charles River Labs, MA) receive either saline or siRNA in desired formulations via tail vein injection at a volume of 0.01 mL/g. At various time points post-administration, animals are anesthetized by isofluorane inhalation and blood is collected into serum separator tubes by retro orbital bleed. Serum levels of Factor VII protein are determined in samples using a chromogenic assay (Coaset Factor VII, DiaPharma Group, OH or Biophen FVII, Aniara Corporation, OH) according to manufacturer protocols. A standard curve is generated using serum collected from saline treated animals. In experiments where liver mRNA levels were assessed, at various time points post-administration, animals are sacrificed and livers are harvested and snap frozen in liquid nitrogen. Frozen liver tissue is ground into powder. Tissue lysates were prepared and liver mRNA levels of Factor VII and apoB are determined using a branched DNA assay (QuantiGene Assay, Panomics, CA).
Factor VII (FVII), a prominent protein in the coagulation cascade, is synthesized in the liver (hepatocytes) and secreted into the plasma. FVII levels in plasma can be determined by a simple, plate-based colorimetric assay. As such, FVII represents a convenient model for determining sirna-mediated downregulation of hepatocyte-derived proteins, as well as monitoring plasma concentrations and tissue distribution of the nucleic acid lipid particles and siRNA.
The cationic lipids shown above are used to formulate liposomes containing the AD-1661duplex using an in-line mixing method, as described in U.S. provisional patent application 61/228,373, which is incorporated by reference in its entirety. Lipid particles are formulated using the following molar ratio: 50% Cationic lipid/10% distearoylphosphatidylcholine (DSPC)/38.5% Cholesterol/1.5% PEG-DMG (1-(monomethoxy-polyethyleneglycol)-2,3-dimyristoylglycerol, with an average PEG molecular weight of 2000).
C57BL/6 mice (Charles River Labs, MA) receive either saline or formulated siRNA via tail vein injection. At various time points after administration, serum samples are collected by retroorbital bleed. Serum levels of Factor VII protein are determined in samples using a chromogenic assay (Biophen FVII, Aniara Corporation, OH). To determine liver mRNA levels of Factor VII, animals are sacrificed and livers were harvested and snap frozen in liquid nitrogen. Tissue lysates are prepared from the frozen tissues and liver mRNA levels of Factor VII are quantified using a branched DNA assay (QuantiGene Assay, Panomics, CA).
FVII activity is evaluated in FVII siRNA-treated animals at 48 hours after intravenous (bolus) injection in C57BL/6 mice. FVII is measured using a commercially available kit for determining protein levels in serum or tissue, following the manufacturer's instructions at a microplate scale. FVII reduction is determined against untreated control mice, and the results are expressed as % Residual FVII. Two dose levels (0.05 and 0.005 mg/kg FVII siRNA) are used in the screen of each novel liposome composition.
Cationic lipid containing particles are made using the preformed vesicle method. Cationic lipid, DSPC, cholesterol and PEG-lipid were solubilized in ethanol at a molar ratio of 40/10/40/10, respectively. The lipid mixture is added to an aqueous buffer (50 mM citrate, pH 4) with mixing to a final ethanol and lipid concentration of 30% (vol/vol) and 6.1 mg/mL respectively and allowed to equilibrate at room temperature for 2 min before extrusion. The hydrated lipids are extruded through two stacked 80 nm pore-sized filters (Nuclepore) at 22° C. using a Lipex Extruder (Northern Lipids, Vancouver, BC) until a vesicle diameter of 70-90 nm, as determined by Nicomp analysis, is obtained. This generally required 1-3 passes.
The FVII siRNA (solubilised in a 50 mM citrate, pH 4 aqueous solution containing 30% ethanol) is added to the vesicles, pre-equilibrated to 35° C., at a rate of ˜5 mL/min with mixing. […]

[1] = Table 10, dose resulting in a 50% reduction in plasma FVII levels vs control animals, lipid formulation with FVII siRNA, i.v. tail vein, C57Bl/6 mice

SMILES | ED50 [1] [mg/kg] | ED50 (in-line mixing formulation compound 1/DSPC/Chol/(C14)PEG-DMG 50/10/38.5/1.5, FIG. 1) [mg/kg] | ED50 (pre-formed vesicle (PFV) formulation compound 1/DSPC/Chol/(C14)PEG-DMG 40/10/40/10, FIG. 2) [mg/kg]
CCCCCC1CC1CC1CC1CCCCCCCCC(CCCCCCCCC1CC1CC1CC1CCCCC)OC(=O)CCCN(C)C (stereo not drawn) [Compound 1, 1,17-bis(2-((2-pentylcyclopropyl)methyl)cyclopropyl)heptadecan-9-yl 4-(dimethylamino)butanoate] | 0.12 | 0.01 | 0.12
CCCCC/C=C\C/C=C\CCCCCCCCC(CCCCCCCC/C=C\C/C=C\CCCCC)SSCCCCN(C)C [Compound 2] | 0.11 |  | 
CCCCC/C=C\C/C=C\CCCCCCCCC(CCCCCCCC/C=C\C/C=C\CCCCC)ON=CCCCN(C)C [Compound 3] | 0.06 |  | 
CCCCC/C=C\C/C=C\CCCCCCC[C@H]1OC2(CCN(C)CC2)O[C@@H]1CCCCCCC/C=C\C/C=C\CCCCC [Compound 4] | 0.07 |  | 
